{"source": "patent US20190030053A1", "about": "“COMPOSITION FOR INCREASING EXPRESSION OF PGC-1alpha” (BENEBIOSIS CO., LTD., priority 2016, published 2019)", "key": {"[1]": {"system": "PGC-1α protein", "assay": "PGC-1α protein expression in brain and hippocampus of old mouse models (western blot)", "format": "in vivo", "details": "ICR mice, oral 0.1 mg/kg/day, 42 weeks", "experimental": "In order to investigate the relative protein expression in the brain compared with before SL (3′-SL & 6′-SL) aministration, 4-week-old ICR mice were purchased from Central Lab Animal (Korea). Water was freely accessible, and a commercially available pellet feed (Dooyeul Biotech, Korea) was given for two weeks. […]\nSialyllactose or DW was orally administered daily. […] The dietary intake and body weight change were measured every 5 days. […]\nIn FIG. 2b, BB1 6′ represents 6′-SL. The “PGC-1α protein expression level” and “GAPDH protein expression level” in each site were quantified, and the relative ratio of the values, (PGC-1α protein expression level)/(GAPDH protein expression level) was numerically expressed for the control group, 3′-SL administration group, and 6′-SL administration group. […]"}, "[2]": {"system": "3T3-L1 adipocytes", "assay": "Oil-Red O staining of intracellular fat in differentiated adipocytes", "format": "cell-based", "details": "differentiated 3T3-L1 adipocytes, 0.01-10 mM, 10 days", "experimental": "3T3-L1 adipocytes were purchased from Korean Cell Line Bank. For the culture and maintenance of 3T3-L1 adipocytes, the cells were subcultured in Dulbecco's modified Eagle's medium (DMEM, Welgene, Korea) supplemented with 10% bovin calf serum (FCS, Welgene, Korea) in a 5% CO2 incubator at 37° C. 3T3-L1 adipocytes were divided into six groups as follows: NT; Normal differentiated cell group (control group), sialyllactose test group; 1, 10, 100, 1000, and 10000 μM test groups treated with sialyllactose (SL, Sigma-Aldrich, USA). For cell differentiation, the cells were dispensed in 6-well plates at a density of 2×10^5 cells per well, and grown to 100% confluency. […]\nAfter differentiation in 6-well plates, 3T3-L1 adipocytes treated with […] or 6’-sialyllactose were washed two times with PBS, and then 2 ml of 10% formalin (Sigma-Aldrich, USA) was added thereto to fix the adipocytes at room temperature for 10 minutes. […] Thereafter, 1 ml of 100% isopropanol (Sigma-Aldrich, USA) was added to effuse stained adipocytes, and then the amount of accumulated fat was measured using absorbance at 500 nm."}, "[3]": {"system": "high-fat diet mice", "assay": "Subcutaneous fat changes of high-fat diet mice by subcutaneous injection", "format": "in vivo, mouse", "details": "0.5 ml of 100 mM, subcutaneous injection day 0 and day 4; observed day 4 and 7", "experimental": "4-Week-old C56BL/6 mice were purchased from Dooyeul Biotech (Korea). Water was freely accessible, and a commercially available pellet feed (Dooyeul Biotech, Korea) was given for one week. A high-fact (60% fat) diet purchased from Research Diets (New Brunswick, U.S.A) was supplied for 28 days to construct fat-accumulated mice.\n0.5 ml of 100 mM 3′-siallylactose or 6′-siallylactose dissolved in a phosphate buffer was subcutaneously injected two times (day 0 and day 4) into four to five sites of the dorsal region of the mouse having fat accumulation induced by a high-fat diet. On day 4 and 7, the skin was observed by the naked eye and dermoscopy. A phosphate buffer was used as a control group (CTL)."}}, "data": [{"smiles": "CC(=O)N[C@H]1[C@H]([C@H](O)[C@H](O)CO)O[C@@](OC[C@H]2O[C@@H](O[C@H]3[C@H](O)[C@@H](O)[C@H](O)O[C@@H]3CO)[C@H](O)[C@@H](O)[C@H]2O)(C(=O)O)C[C@@H]1O", "note": "[6′-SL, α-NeuNAc-(2→6)-β-D-Gal-(1→4)-D-Glc]", "values": [{"measurement": "PGC-1α protein expression level (PGC-1α/GAPDH) vs negative control", "setting": "[1]", "result": "much higher"}, {"measurement": "intracellular fat (Oil Red O)", "setting": "[2]; listed as 6′-siallylactose", "result": "greatly reduced"}, {"measurement": "intracellular fat (Oil Red O)", "setting": "[2]; listed as 6′-sialyllactose", "result": "significantly reduced intracellular fat"}, {"measurement": "subcutaneous fat (naked eye and dermoscopy)", "setting": "[3]", "result": "greatly reduced subcutaneous fat"}]}]}
